# According to patent US20260265233A1, “BENZOTHIOPHENE DERIVATIVES AS RXFP1 AGONISTS” (BRISTOL-MYERS SQUIBB COMPANY, priority 2021, published 2026):
# Biological target: T1, human RXFP1 (Homo sapiens, UniProt Q9HBX9)
# T1 construct: expressed in transfected cells
# T1 sequence (Q9HBX9 1-757): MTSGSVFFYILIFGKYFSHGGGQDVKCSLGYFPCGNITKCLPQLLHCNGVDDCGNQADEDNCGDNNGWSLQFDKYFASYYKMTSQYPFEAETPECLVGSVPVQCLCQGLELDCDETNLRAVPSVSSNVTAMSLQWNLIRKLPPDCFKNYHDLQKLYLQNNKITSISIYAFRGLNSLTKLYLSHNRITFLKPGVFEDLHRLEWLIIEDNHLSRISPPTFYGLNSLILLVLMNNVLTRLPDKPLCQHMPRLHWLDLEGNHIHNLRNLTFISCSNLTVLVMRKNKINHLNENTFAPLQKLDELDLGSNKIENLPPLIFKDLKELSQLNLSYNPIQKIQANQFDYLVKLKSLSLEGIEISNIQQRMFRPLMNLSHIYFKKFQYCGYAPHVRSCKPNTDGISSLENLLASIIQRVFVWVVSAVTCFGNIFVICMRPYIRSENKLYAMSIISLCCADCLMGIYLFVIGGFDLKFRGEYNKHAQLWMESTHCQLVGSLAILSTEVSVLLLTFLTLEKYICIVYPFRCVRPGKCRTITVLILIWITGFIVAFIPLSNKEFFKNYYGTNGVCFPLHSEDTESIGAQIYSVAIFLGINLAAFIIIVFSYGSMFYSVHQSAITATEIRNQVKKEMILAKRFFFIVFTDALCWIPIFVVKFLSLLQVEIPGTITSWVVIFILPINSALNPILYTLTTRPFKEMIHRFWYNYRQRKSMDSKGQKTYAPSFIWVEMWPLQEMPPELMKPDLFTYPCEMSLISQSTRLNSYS
# Assay: hRXFP1 HEK293 cAMP assay (HTRF)
# Type: cell-based
# Settings: HEK293 cells stably expressing human RXFP1; 30 min at rt; intracellular cAMP by HTRF
# In short: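 Agonism is measured as cAMP by HTRF, quantified from a standard curve via the 665/590 nm ratio and fitted with a four-parameter logistic equation. Compounds (0.010 nM to 50 μM final, 2% DMSO) were applied for 30 min at rt to human RXFP1-expressing HEK293 cells in assay buffer containing 0.5 mM IBMX.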
row,EC50 [nM],SMILES
1,22.5,"COc1ccc(CNC(c2ccc(F)c(-c3ccc(OC)c(C(=O)Nc4c(C(=O)Nc5ccc(F)c(C(F)(F)F)c5)sc5cc(C(F)(F)F)ccc45)c3)c2)C(F)(F)F)cc1OC (single isomer, unassigned) [Example 114, 3-(5′-(1-((3,4-dimethoxybenzyl)amino)-2,2,2-trifluoroethyl)-2′-fluoro-4-methoxy-[1,1′-biphenyl]-3-carboxamido)-N-(4-fluoro-3-(trifluoromethyl)phenyl)-6-(trifluoromethyl) benzo[b] thiophene-2-carboxamide]"
2,98,"COc1ccc(CNC(c2ccc(F)c(-c3ccc(OC)c(C(=O)Nc4c(C(=O)Nc5ccc(F)c(C(F)(F)F)c5)sc5cc(C(F)(F)F)ccc45)c3)c2)C(F)(F)F)cc1OC (single isomer, unassigned) [Example 115, 3-(5′-(1-((3,4-dimethoxybenzyl)amino)-2,2,2-trifluoroethyl)-2′-fluoro-4-methoxy-[1,1′-biphenyl]-3-carboxamido)-N-(4-fluoro-3-(trifluoromethyl)phenyl)-6-(trifluoromethyl) benzo[b] thiophene-2-carboxamide]"
3,876,"COc1ccc(C2CCNC2)cc1C(=O)Nc1c(C(=O)Nc2ccc(F)c(C(F)(F)F)c2)sc2cc(C(F)(F)F)ccc12 (single isomer, unassigned) [Example 133, N-(4-fluoro-3-(trifluoromethyl)phenyl)-3-(2-methoxy-5-(pyrrolidin-3-yl)benzamido)-6-(trifluoromethyl) benzo[b] thiophene-2-carboxamide]"
4,72.6,"COc1ccc(C2CCN(C(=O)C(C)(C)CO)C2)cc1C(=O)Nc1c(C(=O)Nc2ccc(F)c(C(F)(F)F)c2)sc2cc(C(F)(F)F)ccc12 (single isomer, unassigned) [Example 139, N-(4-fluoro-3-(trifluoromethyl)phenyl)-3-(5-(1-(3-hydroxy-2,2-dimethyl-propanoyl)pyrrolidin-3-yl)-2-methoxy-benzamido)-6-(trifluoromethyl) benzo[b] thiophene-2-carboxamide]"
5,1200,"COc1ccc(C2CCN(CCS(C)(=O)=O)C2)cc1C(=O)Nc1c(C(=O)Nc2ccc(F)c(C(F)(F)F)c2)sc2cc(C(F)(F)F)ccc12 (single isomer, unassigned) [Example 149, N-(4-fluoro-3-(trifluoromethyl)phenyl)-3-(2-methoxy-5-(1-(2-(methylsulfonyl)ethyl)pyrrolidin-3-yl)benzamido)-6-(trifluoromethyl) benzo[b] thiophene-2-carboxamide]"
6,228,"COc1ccc(C2CCN(C(=O)C(C)(C)CO)C2)cc1C(=O)Nc1c(C(=O)Nc2ccc(F)c(C(F)(F)F)c2)sc2cc(C(F)(F)F)ccc12 (single isomer, unassigned) [Example 150, N-(4-fluoro-3-(trifluoromethyl)phenyl)-3-(5-(1-(3-hydroxy-2,2-dimethyl-propanoyl)pyrrolidin-3-yl)-2-methoxy-benzamido)-6-(trifluoromethyl) benzo[b] thiophene-2-carboxamide]"
7,314,"COc1ccc(C2CCN(CCS(C)(=O)=O)C2)cc1C(=O)Nc1c(C(=O)Nc2ccc(F)c(C(F)(F)F)c2)sc2cc(C(F)(F)F)ccc12 (single isomer, unassigned) [Example 153, N-(4-fluoro-3-(trifluoromethyl)phenyl)-3-(2-methoxy-5-(1-(2-(methylsulfonyl)ethyl)pyrrolidin-3-yl)benzamido)-6-(trifluoromethyl) benzo[b] thiophene-2-carboxamide]"
8,1040,"COc1ccc(C2CC2C(=O)NC2CCOCC2)cc1C(=O)Nc1c(C(=O)Nc2ccc(F)c(C(F)(F)F)c2)sc2cc(C(F)(F)F)ccc12 (single isomer, unassigned) [Example 157, N-[4-fluoro-3-(trifluoromethyl)phenyl]-3-(2-methoxy-5-{2-[(oxan-4-yl)carbamoyl]cyclopropyl}benzamido)-6-(trifluoromethyl)-1-benzothiophene-2-carboxamide]"
9,29.8,"COc1ccc(C2CC2C(=O)NC2CCOCC2)cc1C(=O)Nc1c(C(=O)Nc2ccc(F)c(C(F)(F)F)c2)sc2cc(C(F)(F)F)ccc12 (single isomer, unassigned) [Example 158, N-[4-fluoro-3-(trifluoromethyl)phenyl]-3-(2-methoxy-5-{2-[(oxan-4-yl)carbamoyl]cyclopropyl}benzamido)-6-(trifluoromethyl)-1-benzothiophene-2-carboxamide]"
10,2300,"COc1ccc(C2CC2C(C)(C)O)cc1C(=O)Nc1c(C(=O)Nc2ccc(F)c(C(F)(F)F)c2)sc2cc(C(F)(F)F)ccc12 (single isomer, unassigned) [Example 160, N-[4-fluoro-3-(trifluoromethyl)phenyl]-3-{5-[2-(2-hydroxypropan-2-yl)cyclopropyl]-2-methoxy-benzamido}-6-(trifluoromethyl)-1-benzothiophene-2-carboxamide]"
11,4940,"COc1ccc(C2CC2C(C)(C)O)cc1C(=O)Nc1c(C(=O)Nc2ccc(F)c(C(F)(F)F)c2)sc2cc(C(F)(F)F)ccc12 (single isomer, unassigned) [Example 161, N-[4-fluoro-3-(trifluoromethyl)phenyl]-3-{5-[2-(2-hydroxypropan-2-yl)cyclopropyl]-2-methoxy-benzamido}-6-(trifluoromethyl)-1-benzothiophene-2-carboxamide]"
12,865,"COc1ccc(C2CC2C(=O)N2CC(S(C)(=O)=O)C2)cc1C(=O)Nc1c(C(=O)Nc2ccc(F)c(C(F)(F)F)c2)sc2cc(C(F)(F)F)ccc12 (single isomer, unassigned) [Example 164, N-[4-fluoro-3-(trifluoromethyl)phenyl]-3-{5-[2-(3-methane-sulfonylazetidine-1-carbonyl)cyclopropyl]-2-methoxy-benzamido}-6-(trifluoromethyl)-1-benzothiophene-2-carboxamide]"
13,176,"COc1ccc(C2CC2C(=O)N2CC(S(C)(=O)=O)C2)cc1C(=O)Nc1c(C(=O)Nc2ccc(F)c(C(F)(F)F)c2)sc2cc(C(F)(F)F)ccc12 (single isomer, unassigned) [Example 168, N-[4-fluoro-3-(trifluoromethyl)phenyl]-3-{5-[2-(3-methane-sulfonylazetidine-1-carbonyl)cyclopropyl]-2-methoxy-benzamido}-6-(trifluoromethyl)-1-benzothiophene-2-carboxamide]"
14,772,"COc1ccc(N2CCCC(C(=O)NC3COC3)C2)cc1C(=O)Nc1c(C(=O)Nc2ccc(F)c(C(F)(F)F)c2)sc2cc(C(F)(F)F)ccc12 (single isomer, unassigned) [Example 188, 1-(3-((2-((4-fluoro-3-(trifluoromethyl)phenyl)carbamoyl)-6-(trifluoromethyl)benzo[b]thiophen-3-yl)carbamoyl)-4-methoxyphenyl)-N-(oxetan-3-yl)piperidine-3-carboxamide]"
15,2770,"COc1ccc(C2CCC(NCC(=O)O)CC2)cc1C(=O)Nc1c(C(=O)Nc2ccc(F)c(C(F)(F)F)c2)sc2cc(C(F)(F)F)ccc12 (single isomer, unassigned) [Example 211, (4-(3-((2-((4-fluoro-3-(trifluoromethyl)phenyl)carbamoyl)-6-(trifluoromethyl)benzo[b]thiophen-3-yl)carbamoyl)-4-methoxyphenyl)cyclohexyl) glycine]"
16,1280,"COc1ccc(N2CCOC(CC(C)(C)O)C2)cc1C(=O)Nc1c(C(=O)Nc2ccc(F)c(C(F)(F)F)c2)sc2cc(C(F)(F)F)ccc12 (single isomer, unassigned) [Example 227, N-(4-fluoro-3-(trifluoromethyl)phenyl)-3-(5-(2-(2-hydroxy-2-methylpropyl)morpholino)-2-methoxy-benzamido)-6-(trifluoromethyl) benzo[b] thiophene-2-carboxamide]"
17,1540,"COc1ccc(N2CCOC(CC(C)(C)O)C2)cc1C(=O)Nc1c(C(=O)Nc2ccc(F)c(C(F)(F)F)c2)sc2cc(C(F)(F)F)ccc12 (single isomer, unassigned) [Example 228, N-(4-fluoro-3-(trifluoromethyl)phenyl)-3-(5-(2-(2-hydroxy-2-methylpropyl)morpholino)-2-methoxy-benzamido)-6-(trifluoromethyl) benzo[b] thiophene-2-carboxamide]"
18,2570,"COc1ccc(N2CCCC(C(=O)NC3COC3)C2)cc1C(=O)Nc1c(C(=O)Nc2ccc(F)c(C(F)(F)F)c2)sc2cc(C(F)(F)F)ccc12 (single isomer, unassigned) [Example 229, 1-(3-((2-((4-fluoro-3-(trifluoromethyl)phenyl)carbamoyl)-6-(trifluoromethyl)benzo [b]thiophen-3-yl)carbamoyl)-4-methoxyphenyl)-N-(oxetan-3-yl)piperidine-3-carboxamide]"
